≈ marks a conversion by molar mass, not a printed value.
Assays:
Micrococcus luteus = test: Antibacterial activity against Micrococcus luteus ATCC 4698 incubated for 16 to 18 hrs by serial plate dilution method; assay type: functional
Staphylococcus aureus [1] = test: Antibacterial activity against Staphylococcus aureus ATCC 25923 incubated for 16 to 18 hrs by serial plate dilution method; assay type: functional
Bacillus subtilis = test: Antibacterial activity against Bacillus subtilis incubated for 16 to 18 hrs by serial plate dilution method; assay type: functional
Escherichia coli = test: Antibacterial activity against Escherichia coli DH52 incubated for 16 to 18 hrs by serial plate dilution method; assay type: functional
Salmonella typhi = test: Antibacterial activity against […] incubated for 16 to 18 hrs by serial plate dilution method; assay type: functional, Salmonella enterica subsp. enterica serovar Typhi; settings: Salmonella enterica
Shigella dysenteriae = test: Antibacterial activity against Shigella dysenteriae incubated for 16 to 18 hrs by serial plate dilution method; assay type: functional
Pseudomonas aeruginosa = test: Antibacterial activity against Pseudomonas aeruginosa incubated for 16 to 18 hrs by serial plate dilution method; assay type: functional
Bos taurus = species: Bos taurus; test: Competitive inhibition of bovine epididymis alpha-L-fucosidase at 1 mM relative to control
[2] = Competitive inhibition of bovine epididymis alpha-L-fucosidase; set-up: species or system Bos taurus
Staphylococcus aureus [3] = test: Antibacterial activity against Staphylococcus aureus; assay type: functional
Prunus dulcis = test: Competitive inhibition of almond beta-glucosidase at 1 mM relative to control
[4] = Competitive inhibition of almond beta-glucosidase; set-up: species or system Prunus dulcis
Beta-galactosidase [5] = molecular target: T1, Beta-galactosidase (Aspergillus oryzae, UniProt B7VU80); test: Inhibition of Aspergillus oryzae beta-galactosidase
T1 sequence (B7VU80 whole entry): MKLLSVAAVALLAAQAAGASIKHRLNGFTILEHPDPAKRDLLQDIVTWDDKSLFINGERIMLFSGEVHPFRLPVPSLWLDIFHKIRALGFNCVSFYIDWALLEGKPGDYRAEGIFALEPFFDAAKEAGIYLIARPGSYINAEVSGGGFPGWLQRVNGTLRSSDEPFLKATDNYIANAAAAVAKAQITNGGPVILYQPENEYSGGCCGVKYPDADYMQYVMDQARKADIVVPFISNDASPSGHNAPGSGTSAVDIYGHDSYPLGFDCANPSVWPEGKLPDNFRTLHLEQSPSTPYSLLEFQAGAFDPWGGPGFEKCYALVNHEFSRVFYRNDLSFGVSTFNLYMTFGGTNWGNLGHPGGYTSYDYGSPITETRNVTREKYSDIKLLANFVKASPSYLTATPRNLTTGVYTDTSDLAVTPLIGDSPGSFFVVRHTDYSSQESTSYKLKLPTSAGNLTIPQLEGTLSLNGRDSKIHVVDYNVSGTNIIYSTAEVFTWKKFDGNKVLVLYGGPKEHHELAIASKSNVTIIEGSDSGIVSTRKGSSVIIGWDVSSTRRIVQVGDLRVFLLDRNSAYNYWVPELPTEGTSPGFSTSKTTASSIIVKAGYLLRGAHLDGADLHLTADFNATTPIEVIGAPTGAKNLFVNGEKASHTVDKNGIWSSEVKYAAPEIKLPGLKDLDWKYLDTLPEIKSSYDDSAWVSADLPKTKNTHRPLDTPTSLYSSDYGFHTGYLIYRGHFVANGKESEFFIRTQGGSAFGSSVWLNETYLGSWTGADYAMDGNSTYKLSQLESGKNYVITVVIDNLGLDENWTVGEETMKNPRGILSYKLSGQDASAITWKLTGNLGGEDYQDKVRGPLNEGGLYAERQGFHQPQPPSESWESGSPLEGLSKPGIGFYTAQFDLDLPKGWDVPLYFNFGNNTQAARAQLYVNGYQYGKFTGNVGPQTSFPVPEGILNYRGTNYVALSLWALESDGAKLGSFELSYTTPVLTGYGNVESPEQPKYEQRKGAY

[6] = Inhibition of 6His-tagged Mycobacterium tuberculosis inorganic pyrophosphatase using tetrasodium PPi as substrate after 8 mins by malachite green dye-based colorimetric analysis
[7] = molecular target: Protein farnesyltransferase (Homo sapiens, UniProt P49354+P49356); test: Inhibition of human recombinant FTase using [3H]FPP as substrate after 15 mins by scintillation counting analysis; assay type: protein-complex assay
HCT-116 = test: Cytotoxicity against human HCT116 cells; assay type: functional
HT-29 = test: Cytotoxicity against human HT-29 cells; assay type: functional
MCF7 = test: Cytotoxicity against human MCF7 cells; assay type: functional
Rattus norvegicus = test: Anticonvulsant activity in Wistar rat assessed as protection against MES-induced seizures at 15 mg/kg dosed via gastric tube; assay type: functional
Beta-galactosidase [8] = molecular target: T2, Beta-galactosidase (Homo sapiens, UniProt P16278); test: Inhibition of beta-galactosidase (unknown origin)
T2 sequence (P16278 whole entry): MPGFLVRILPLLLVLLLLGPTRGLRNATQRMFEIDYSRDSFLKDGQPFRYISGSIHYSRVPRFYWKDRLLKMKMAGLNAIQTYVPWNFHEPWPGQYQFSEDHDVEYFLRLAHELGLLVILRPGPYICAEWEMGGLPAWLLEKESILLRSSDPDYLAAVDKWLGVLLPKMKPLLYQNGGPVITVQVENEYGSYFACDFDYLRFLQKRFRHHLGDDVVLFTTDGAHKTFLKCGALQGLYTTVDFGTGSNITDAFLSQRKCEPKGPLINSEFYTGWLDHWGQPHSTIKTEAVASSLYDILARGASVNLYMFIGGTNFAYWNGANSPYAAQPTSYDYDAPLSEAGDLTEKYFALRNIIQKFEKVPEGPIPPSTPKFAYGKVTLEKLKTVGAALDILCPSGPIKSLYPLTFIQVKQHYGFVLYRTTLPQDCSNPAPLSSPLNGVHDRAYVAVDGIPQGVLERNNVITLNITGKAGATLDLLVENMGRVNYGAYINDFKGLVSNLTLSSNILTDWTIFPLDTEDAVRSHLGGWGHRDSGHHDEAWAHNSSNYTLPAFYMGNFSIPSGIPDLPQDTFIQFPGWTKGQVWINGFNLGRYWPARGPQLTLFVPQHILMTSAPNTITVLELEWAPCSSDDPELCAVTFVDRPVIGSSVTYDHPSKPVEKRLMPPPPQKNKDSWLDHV

Alpha-galactosidase = Alpha-galactosidase (Coffea arabica, UniProt Q42656); test: Inhibition of green coffee bean alpha-galactosidase
Sequence of Alpha-galactosidase (Q42656 whole entry): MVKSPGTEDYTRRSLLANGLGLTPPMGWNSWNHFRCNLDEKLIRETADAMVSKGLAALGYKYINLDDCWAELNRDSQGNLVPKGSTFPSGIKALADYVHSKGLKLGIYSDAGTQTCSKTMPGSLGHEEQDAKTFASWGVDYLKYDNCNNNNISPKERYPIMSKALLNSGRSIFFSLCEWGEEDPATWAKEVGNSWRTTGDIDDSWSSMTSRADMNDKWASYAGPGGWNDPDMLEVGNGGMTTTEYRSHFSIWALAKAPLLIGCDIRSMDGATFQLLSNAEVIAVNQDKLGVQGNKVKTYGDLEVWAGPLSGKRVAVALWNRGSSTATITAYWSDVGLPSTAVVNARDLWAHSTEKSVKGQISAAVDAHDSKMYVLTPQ

## COC(=O)C1CCCCN(c2ccccn2)C1C(=O)OC (stereo not drawn)
Micrococcus luteus
  MIC: 1 to 16 µg/mL (≈ 3.42 to 54.7 µM)
Staphylococcus aureus [1]
  MIC: 1 to 16 µg/mL (≈ 3.42 to 54.7 µM)
Bacillus subtilis
  MIC: 1 to 16 µg/mL (≈ 3.42 to 54.7 µM)
Escherichia coli
  MIC: 1 to 16 µg/mL (≈ 3.42 to 54.7 µM)
Salmonella typhi
  MIC: 1 to 16 µg/mL (≈ 3.42 to 54.7 µM)
Shigella dysenteriae
  MIC: 1 to 16 µg/mL (≈ 3.42 to 54.7 µM)
Pseudomonas aeruginosa
  MIC: 1 to 16 µg/mL (≈ 3.42 to 54.7 µM)

## O=C(O)[C@H]1CNC[C@@H](O)[C@H](O)[C@H]1O
Bos taurus
  inhibition: 99%
[2]
  Ki: 41 µM

## NC[C@H]1O[C@H](O[C@H]2C[C@H](CO)NCC[C@H]2N)[C@H](N)[C@@H](O)[C@@H]1O
Staphylococcus aureus [3]
  MIC: 32 µg/mL (≈ 99.9 µM)

## C[C@@H]1CNC[C@@H](O)[C@H](O)[C@H]1O
Prunus dulcis
  inhibition: 100%
[4]
  Ki: 2.5 µM

## O=C(O)C[C@@H]1NC[C@H](O)[C@H](O)[C@H](O)[C@H]1O
Beta-galactosidase [5]
  IC50: 279 µM

## CCCCN(CCCC)c1nc(-c2cccn2CCc2ccccc2)nc(N2CCCCCC2)n1
[6]
  IC50: 23 µM

## CN(C)c1nc(-c2cccn2-c2ccccc2)nc(N(C)C)n1
[6]
  IC50: 540 µM

## O=C(O)C[C@H]1NC[C@@H](O)[C@@H](O)[C@H](O)[C@H]1O
Beta-galactosidase [5]
  IC50: 215 µM

## CCC1CCCN(C)C(=O)[C+]1c1cccc(Oc2cc(C(C)(N)c3cncn3C)ccc2C#N)c1 (stereo not drawn)
[7]
  IC50: 0.06 nM

## CC(C)O[C@H]1[C@H](OC(C)C)[C@H](O)CN(Cc2ccc(OCCCOc3ccc(CN4C[C@@H](O)[C@@H](OC(C)C)[C@H](OC(C)C)[C@H](O)C4)cc3)cc2)C[C@H]1O
HCT-116
  GI50: 6 µM
HT-29
  GI50: 23 µM
MCF7
  GI50: 24 µM

## NC[C@H]1O[C@H](OC2C[C@H](CO)NCC[C@@H]2N)[C@H](N)[C@@H](O)[C@@H]1O (stereo partly drawn)
Staphylococcus aureus [3]
  MIC: 64 µg/mL (≈ 200 µM)

## NC(=O)N1c2ccccc2C/C(=N\O)c2ccccc21
Rattus norvegicus
  Activity: 90%

## c1ccc(-n2cccc2-c2nc(N3CC3)nc(N3CC3)n2)cc1
[6]
  IC50: 130 µM

## CCCC[C@@H]1C[C@@H](O)[C@@H](O)[C@@H](O)CN1
Beta-galactosidase [8]
  IC50: 3 µM

## O=C(O)C[C@H]1NC[C@@H](O)[C@H](O)[C@H](O)[C@H]1O
Beta-galactosidase [5]
  IC50: 21 µM

## COC(=O)C1CCCCN(c2ccc(Cl)cc2)C1C(=O)OC (stereo not drawn)
Micrococcus luteus
  MIC: 2 to 32 µg/mL (≈ 6.14 to 98.2 µM)
Staphylococcus aureus [1]
  MIC: 2 to 32 µg/mL (≈ 6.14 to 98.2 µM)
Bacillus subtilis
  MIC: 2 to 32 µg/mL (≈ 6.14 to 98.2 µM)
Escherichia coli
  MIC: 2 to 32 µg/mL (≈ 6.14 to 98.2 µM)
Salmonella typhi
  MIC: 2 to 32 µg/mL (≈ 6.14 to 98.2 µM)
Shigella dysenteriae
  MIC: 2 to 32 µg/mL (≈ 6.14 to 98.2 µM)
Pseudomonas aeruginosa
  MIC: 2 to 32 µg/mL (≈ 6.14 to 98.2 µM)

## OC[C@H]1NC[C@H](O)[C@H](O)[C@@H](O)[C@@H]1O
Alpha-galactosidase
  Ki: 2.2 µM
